Key:
MSH3 (human MutSbeta) = target: T1, MSH3 (human MutSbeta) (Homo sapiens, UniProt P20585); assay: ATP binding and cross-linking assay (MSH3 subunit); conditions: [32P]-ATP UV cross-linking to MSH3 subunit of MutSbeta; read-out: cross-link assay IC50 MSH3
T1 construct: Msh3(1-1137), Gene ID J04810.1
Protocol: (§1) ATP binding and cross-linking assay: Enzyme human MutSbeta (Msh2(1-934), Gene ID NP_000242.1, Msh3(1-1137), Gene ID J04810.1) was adjusted to 0.2 μM and, in experiments in the presence of 22 bp biotin-labeled DNA containing a GT-mismatch (purchased from Curia Global, TOP 5′-[…]-3′; BOT 3′-AGTAGCTAGGC - - - CGAAGTCTACC-5′-Biotin), pre-incubated with DNA at equimolar concentration for indicated time and temperature. All reagents were kept on ice. Enzyme was then incubated on ice for the indicated time with 5 nM γ-[^32P]-ATP (Hartmann Analytic, FP-301) or α-[^32P]-ATP (Perkin Elmer, NEG003H250UCSBF4 or Hartmann Analytic, FP-207) and addition of cold ATP (10 μM) or ADP (0.3 μM). The total volume was 20 μL and the samples were handled in Eppendorf reaction tubes. The assay buffer was 25 mM HEPES pH=7.5, 150 mM KCl, 5 mM MgCl2, 5 mM GSH, 0.01% Tween-20. All steps with radioactive ATP were conducted behind appropriate shielding. The samples were then placed on dry ice until they were frozen solid. […] The screen was analyzed in the imager (GE Healthcare, Fluorescent Image Analyzer, Typhoon FLA 7000, #5622514B), and the image was analyzed with imageJ software.

MSH2 (human MutSbeta) = target: T2, MSH2 (human MutSbeta) (Homo sapiens, UniProt P43246); assay: ATP binding and cross-linking assay (MSH2 subunit); conditions: [32P]-ATP UV cross-linking to MSH2 subunit of MutSbeta; read-out: cross-link assay IC50 MSH2
T2 construct: Msh2(1-934), Gene ID NP_000242.1
T2 sequence (P43246 whole entry): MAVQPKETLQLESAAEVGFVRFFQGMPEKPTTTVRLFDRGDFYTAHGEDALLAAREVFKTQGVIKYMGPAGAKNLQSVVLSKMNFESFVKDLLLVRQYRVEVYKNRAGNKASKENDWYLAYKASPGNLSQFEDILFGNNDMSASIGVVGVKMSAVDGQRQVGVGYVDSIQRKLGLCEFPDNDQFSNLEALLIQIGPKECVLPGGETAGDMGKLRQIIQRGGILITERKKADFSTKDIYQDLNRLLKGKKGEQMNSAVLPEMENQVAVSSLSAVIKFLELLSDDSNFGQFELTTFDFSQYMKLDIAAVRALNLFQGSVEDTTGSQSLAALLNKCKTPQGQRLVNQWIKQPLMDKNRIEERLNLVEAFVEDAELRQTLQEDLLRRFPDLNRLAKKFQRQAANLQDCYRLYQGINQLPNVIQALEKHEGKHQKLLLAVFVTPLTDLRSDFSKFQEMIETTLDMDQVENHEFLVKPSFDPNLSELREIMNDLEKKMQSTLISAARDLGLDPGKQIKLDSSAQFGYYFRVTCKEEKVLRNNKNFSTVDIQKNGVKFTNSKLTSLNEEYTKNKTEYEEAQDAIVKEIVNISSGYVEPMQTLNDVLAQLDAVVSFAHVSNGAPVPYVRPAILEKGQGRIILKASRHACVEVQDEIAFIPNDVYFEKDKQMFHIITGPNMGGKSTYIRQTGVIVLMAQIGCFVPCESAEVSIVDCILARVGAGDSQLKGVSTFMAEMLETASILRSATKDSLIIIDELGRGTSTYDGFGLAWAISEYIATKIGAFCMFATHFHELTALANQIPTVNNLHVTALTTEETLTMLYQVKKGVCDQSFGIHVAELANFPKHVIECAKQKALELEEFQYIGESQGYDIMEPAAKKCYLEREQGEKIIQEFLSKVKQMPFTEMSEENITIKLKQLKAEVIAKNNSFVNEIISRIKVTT
T2 sequence (P20585 whole entry partner): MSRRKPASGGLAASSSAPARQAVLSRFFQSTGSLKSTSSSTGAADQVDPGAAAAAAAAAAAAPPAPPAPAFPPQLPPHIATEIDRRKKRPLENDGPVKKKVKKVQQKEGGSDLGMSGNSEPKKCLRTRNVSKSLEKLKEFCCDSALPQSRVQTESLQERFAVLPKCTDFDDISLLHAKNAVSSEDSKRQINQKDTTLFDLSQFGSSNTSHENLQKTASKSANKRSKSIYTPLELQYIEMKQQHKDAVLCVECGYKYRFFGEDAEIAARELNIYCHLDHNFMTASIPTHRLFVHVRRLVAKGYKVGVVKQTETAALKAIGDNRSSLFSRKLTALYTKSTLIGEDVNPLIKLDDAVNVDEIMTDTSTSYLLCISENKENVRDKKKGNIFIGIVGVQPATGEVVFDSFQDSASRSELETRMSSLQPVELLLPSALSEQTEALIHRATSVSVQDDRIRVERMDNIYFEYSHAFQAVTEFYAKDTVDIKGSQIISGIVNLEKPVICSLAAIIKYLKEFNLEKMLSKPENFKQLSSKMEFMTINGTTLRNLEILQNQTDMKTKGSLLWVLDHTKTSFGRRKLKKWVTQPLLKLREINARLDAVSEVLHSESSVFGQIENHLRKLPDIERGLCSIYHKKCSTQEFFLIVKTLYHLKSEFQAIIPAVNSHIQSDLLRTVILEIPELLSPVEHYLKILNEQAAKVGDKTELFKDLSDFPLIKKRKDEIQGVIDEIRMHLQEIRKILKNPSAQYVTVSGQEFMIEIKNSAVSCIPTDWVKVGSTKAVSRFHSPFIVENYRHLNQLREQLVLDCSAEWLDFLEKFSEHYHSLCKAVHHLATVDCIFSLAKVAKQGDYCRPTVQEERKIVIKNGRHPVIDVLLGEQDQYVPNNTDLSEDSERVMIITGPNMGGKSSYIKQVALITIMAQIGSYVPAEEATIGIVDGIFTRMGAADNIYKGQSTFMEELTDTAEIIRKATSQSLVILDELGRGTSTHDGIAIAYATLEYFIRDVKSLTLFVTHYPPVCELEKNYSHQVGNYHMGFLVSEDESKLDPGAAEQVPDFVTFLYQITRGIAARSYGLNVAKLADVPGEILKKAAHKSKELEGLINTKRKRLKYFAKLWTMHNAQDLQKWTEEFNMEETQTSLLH
Protocol: as §1

human MutSbeta [1] = target: T3, human MutSbeta (Homo sapiens, UniProt P20585+P43246); assay: ADP Glo assay 1.1; assay type: biochemical; conditions: SPA buffer, no Ovalbumin; enzyme added to compounds before ATP; read-out: ADP Gol 1.1 assay IC50
T3 construct: Msh2(1-934), Gene ID NP_000242.1; Msh3(1-1137), Gene ID J04810.1
T3 sequence (P43246 whole entry): as the sequence (P43246 whole entry) above
T3 sequence (P20585 whole entry): as the sequence (P20585 whole entry partner) above
Protocol: (§2) ADP Glo assay 2.1: Enzyme human MutSbeta (Msh2(1-934), Gene ID NP_000242.1, Msh3(1-1137), Gene ID J04810.1) with 22 bp biotin-labeled DNA containing a GT-mismatch (purchased from Curia Global, TOP 5′-[…]-3′; BOT 3′-AGTAGCTAGGC - - - CGAAGTCTACC-5′-Biotin) was pre-incubated in assay buffer (25 mM HEPES pH=7.5, 150 mM KCl, 5 mM MgCl2, 5 mM GSH, 0.1% Pluronic F-127, 0.2% Ovalbumin) to allow formation of the enzyme-DNA complex. Plates with spotted compounds in serial dilutions in DMSO (80 nL) were filled with ATP (2 μL, 10 μM final concentration) followed by an incubation of 30 min at RT. Then, enzyme was added (2 μL, 7 nM final concentration) and the reaction was allowed to proceed for 60 min at 37° C. After the ATPase reaction, the commercially available “ADP-Glo Reagent” was added (incubate 40 min at RT) to deplete remaining ATP via the activity of […]. Subsequently, the commercially available “Kinase Detection Reagent” converted ADP to ATP via the activity of PEP and Pyruvate kinase. The ATP was then converted into light by Ultra-Glo Luciferase. The obtained luminescence was proportional to the ADP concentration generated during the initial ATPase reaction. The luminescence signal was measured with an Envision reader, raw data were analyzed towards controls (full reaction=0% inhibition; no reaction in absence of enzyme=100% inhibition) and IC50 curves were analyzed with the inhouse software Aplus.
ADP Glo assay 1.1: The ADP Glo 2.1 assay was adapted to enable assessment of a more direct interaction of the compound with the enzyme: (1) the SPA buffer was applied (25 mM HEPES pH=7.5, 150 mM KCl, 2 mM MgCl2, 2 mM GSH, 0.01% Tween-20) which contained no decoy Ovalbumin protein. (2) The order of reagent addition was changed, and enzyme was now added directly to the spotted compounds before addition of ATP.

human MutSbeta [2] = target: T3, human MutSbeta; assay: ADP Glo assay 2.1; assay type: biochemical; conditions: 10 μM ATP, 7 nM enzyme; buffer with 5 mM GSH, 0.2% Ovalbumin
Protocol: as §2

human MutSα = target: T4, human MutSα (Homo sapiens, UniProt P43246+P52701); assay: ADP Glo assay with MutSα (2.1); assay type: biochemical; conditions: 15 nM MutSα/DNA, 30 μM ATP
T4 construct: Msh2(1-934), Gene ID NP_000242.1; Msh6(1-1360), Gene ID NP_001393725.1
Protocol: as §2
ADP Glo assay with MutSα (2.1): The ADP Glo assay version 2.1 with the enzyme human MutSα (Msh2(1-934), Gene ID NP_000242.1, Msh6(1-1360), Gene ID NP_001393725.1) was based on the same principle and protocol steps as the MutSβ assay. A 22 bp biotin-labeled DNA containing a GT-mismatch (purchased from Curia Global, TOP 5′-[…]-3′; BOT 3′-AGTAGCTAGGC - - - CGAAGTCTACC-5′-Biotin) was used for binding to MutSα. For this assay, concentrations of enzyme and ATP were optimized to 15 nM MutSα/DNA and 30 μM ATP.

T1 sequence (P20585 whole entry): as the sequence (P20585 whole entry partner) above
T1 sequence (P43246 whole entry partner): as the sequence (P43246 whole entry) above

## Cc1ccc(Nc2nc(N3CCN(C)CC3)nc3nccnc23)cc1C [Compound 2, N-(3,4-dimethylphenyl)-2-(4-methylpiperazin-1-yl)pteridin-4-amine]
MSH3 (human MutSbeta)
  IC50: 5 µM
MSH2 (human MutSbeta)
  IC50: 120 µM
Human MutSbeta [1]
  IC50: 54.8 µM
Human MutSbeta [2]
  IC50: 67.3 µM
Human MutSα
  IC50: 135 µM

## CCN1CCN(c2nc(Nc3ccc(Cl)cc3)c3nccnc3n2)CC1 [Compound 4, N-(4-Chlorophenyl)-2-(4-ethylpiperazin-1-yl)pteridin-4-amine]
MSH3 (human MutSbeta)
  IC50: 9 µM
MSH2 (human MutSbeta)
  IC50: 215 µM
Human MutSbeta [1]
  IC50: 64.3 µM
Human MutSbeta [2]
  IC50: 152 µM
Human MutSα
  IC50: 121 µM

From patent publication US20240199624A1, “COMPOUNDS, COMPOSITIONS, AND METHODS” (CHDI Foundation, Inc., priority 2022, published 2024)
